Here are results for 1 substance from patent US20240009191A1, “METHOD AND COMPOSITION FOR THE TREATMENT OF DISEASE” (DIMERIX BIOSCIENCE PTY LTD, priority 2019, published 2024).

Assay type in all cases: cell-based
One experiment has as its target T1, AT1R (Homo sapiens, UniProt P30556).
T1 construct: expressed in transfected cells; host or cells: HEK293FT
T1 sequence (P30556 1-359): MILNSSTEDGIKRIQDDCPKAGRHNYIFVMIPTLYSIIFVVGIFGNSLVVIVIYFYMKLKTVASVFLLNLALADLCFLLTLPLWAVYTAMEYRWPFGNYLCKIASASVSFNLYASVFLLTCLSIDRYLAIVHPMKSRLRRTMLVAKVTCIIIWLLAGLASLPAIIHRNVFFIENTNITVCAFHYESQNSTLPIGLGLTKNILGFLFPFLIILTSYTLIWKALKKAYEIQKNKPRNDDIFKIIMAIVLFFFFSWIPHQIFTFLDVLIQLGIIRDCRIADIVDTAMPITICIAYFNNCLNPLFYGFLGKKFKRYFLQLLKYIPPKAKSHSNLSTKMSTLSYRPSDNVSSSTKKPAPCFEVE
Put plainly: BRET trafficking of AT1R/Rluc8 to Venus/Kras or Venus/Rab markers, absence of CXCR2. To be noted: 100 nM CXCL8, 1 μM AngII. As for the experimental part:
(§1) HEK293FT cells were seeded in 6-well plates at a density of approximately 700,000 cells/well and maintained at 37° C., 5% CO2 in Complete Media (DMEM containing 0.3 mg/ml glutamine, 100 IU/ml penicillin and 100 μg/ml streptomycin (Gibco/Thermo Fisher)) supplemented with 10% fetal calf serum (FCS; Bovogen). Transient transfections were carried out 24 h after seeding using FuGene6™ (Promega) according to manufacturer instructions. 24 h post-transfection, cells were washed with PBS, detached using 0.05% trypsin/0.53 mM EDTA, resuspended in HEPES-buffered phenol red free Complete Media containing 5% FCS and added to a poly-L-lysine-coated white 96-well microplate (Greiner Bio-One). 48 h post-transfection, bioluminescence resonance energy transfer (BRET) assays were carried out following pre-incubation of cells with EnduRen™ (Promega) at a final concentration of 30 μM, at 37° C., 5% CO2 for 2 h. BRET measurements were taken at 37° C. using the LUMlstar™ or CLARIOstar™ (BMG Labtech). Filtered light emissions were measured for 1 s in each of the ‘donor wavelength window’ (460-490 nm for LUMlstar™ or 410-490 nm for CLARIOstar™) and ‘acceptor wavelength window’ (520-550 nm for LUMlstar™ or 520-620 nm for CLARIOstar™).
(§2) The BRET signal observed between interacting proteins is normalized by subtracting the background BRET ratio. This can be done in one of two ways (see Pfleger et al. (2006) Cell Signal 18:1664-1670; Pfleger et al. (2006) Nat Protoc 1:336-344): 1) the ratio of the 520-550 nm or 520-620 nm emission over the 460-490 nm or 410-490 nm emission for a cell sample containing only the donor construct is subtracted from the same ratio for a sample containing the interacting acceptor and donor fusion proteins; 2) the ratio of the 520-550 nm or 520-620 nm emission over the 460-490 nm or 410-490 nm emission for a cell sample treated with vehicle is subtracted from the same ratio for a second aliquot of the same cell sample treated with ligand. In the following examples, the second calculation will be used and the signal is described as ligand-induced BRET′. Furthermore, for data shown in FIGS. 4 to 20, all data points in a given set are corrected relative to the final data point prior to agonist treatment, which is fixed to zero. In keys on FIGS. 7 to 20, “>” means “followed by after 50 minutes”, with agonists added at time zero on the x-axes.
(§3) Referring now to FIG. 3 (published in Tiulpakov et al (2016) Mol. Endocrinol. 30, 889-904), the proximity of Rluc8-tagged receptors to Venus-tagged Kras plasma membrane marker, or Venus-tagged Rabs specific for distinct subcellular locations, is monitored in live cells and in real-time using BRET. The Rab markers are: Venus/Rab5 (5) for early endosomes; Venus/Rab4 (4) for early endosome recycling; Venus/Rab11a (11) for recycling endosomes; Venus/Rab7 (7) for late endosomes/lysosomes; Venus/Rab9 (9) for late endosome trafficking to the trans-Golgi network; Venus/Rab1 (1) for endoplasmic reticulum trafficking to the cis-Golgi; Venus/Rab6 (6) for Golgi apparatus and trans-Golgi network; or Venus/Rab8 (8) for trans-Golgi network to plasma membrane.
In general terms: BRET reads energy transfer from a luciferase to a nearby fluorophore.

The next experiment concerns the target T2, AT1R and CXCR2 (Homo sapiens, UniProt P25025+P30556).
T2 sequence (P30556 1-359): T1 sequence (P30556 1-359)
T2 sequence (P25025 1-360): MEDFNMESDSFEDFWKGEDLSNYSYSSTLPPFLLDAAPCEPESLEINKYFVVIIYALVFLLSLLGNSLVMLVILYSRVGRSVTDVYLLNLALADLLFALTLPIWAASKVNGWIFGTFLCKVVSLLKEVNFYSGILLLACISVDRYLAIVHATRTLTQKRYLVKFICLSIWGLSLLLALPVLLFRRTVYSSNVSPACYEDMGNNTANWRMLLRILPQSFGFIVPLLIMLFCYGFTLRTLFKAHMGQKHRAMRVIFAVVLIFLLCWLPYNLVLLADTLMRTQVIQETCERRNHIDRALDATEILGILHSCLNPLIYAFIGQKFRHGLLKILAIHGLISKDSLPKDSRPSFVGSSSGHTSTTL
Put plainly: IP1 accumulation, HEK293 cells stably-expressing CXCR2 and transiently-transfected with AT1R.

The target in another experiment is T3, AT1R-CXCR2 heteromer (Homo sapiens, UniProt P25025+P30556).
T3 sequence (P30556 1-359): T1 sequence (P30556 1-359)
T3 sequence (P25025 1-360): T2 sequence (P25025 1-360)
Put plainly: BRET trafficking of AT1R/Rluc8 to Venus/Kras or Venus/Rab markers, presence of unlabelled CXCR2. As for the experimental part: as §1, §2
The Receptor-Heteromer Investigation Technology (Receptor-HIT) is an assay configuration that provides insights into receptor complexes (Ayoub et al. (2015) PLoS One 10(3):e0119803). It is also known as GPCR-HIT when assessing GPCRs. It is an assay configuration whereby one receptor (eg. CXCR2) is labelled with one component (eg. Renilla luciferase variant Rluc8) of a proximity-based reporter system (eg. BRET), the complementary component of which (eg. Venus yellow fluorescent protein) is fused to a receptor interacting partner (eg. mGsi).
as §3

“Also recorded” adds a separate entry of the source.

Regarding Angiotensin II [AngII], on AT1R (Golgi apparatus to trans-Golgi network, FIG. 5I), the “proximity of AT1R/Rluc8 to Venus/Rab6 (BRET)” value is recorded as “little effect”. In addition, the “proximity of AT1R/Rluc8 to Venus/Rab4 (BRET)” value on AT1R (early endosome recycling, FIG. 5E) was “increase”; at AT1R-CXCR2 heteromer, “increase”. For the same substance, the “proximity of AT1R/Rluc8 to Venus/Rab5 (BRET)” value is listed as “substantial increase” on AT1R (early endosomes, FIG. 5G) and “substantial increase” at AT1R-CXCR2 heteromer. The “proximity of AT1R/Rluc8 to Venus/Rab1 (BRET)” value was “increase” on AT1R (endoplasmic reticulum to cis-Golgi, FIG. 5C) and “increase” at AT1R-CXCR2 heteromer. For the same substance, the “proximity of AT1R/Rluc8 to Venus/Rab9 (BRET)” value on AT1R (late endosome to trans-Golgi network, FIG. 5O) is listed as “increase”; at AT1R-CXCR2 heteromer, “increase”. For the same substance, the “proximity of AT1R/Rluc8 to Venus/Rab7 (BRET)” value is on record as “increase” on AT1R (late endosomes/lysosomes, FIG. 5K) and “increase” at AT1R-CXCR2 heteromer. In addition, the “proximity of AT1R/Rluc8 to Venus/Kras (BRET)” value on AT1R (plasma membrane marker, FIG. 5A) is on record as “marked reduction”; at AT1R-CXCR2 heteromer, “marked reduction; also recorded: does not result in a notable increase”. Also, the “proximity of AT1R/Rluc8 to Venus/Rab11a (BRET)” value is “substantial increase” on AT1R (recycling endosomes, FIG. 5Q) and “substantial increase” at AT1R-CXCR2 heteromer. Moreover, the “proximity of AT1R/Rluc8 to Venus/Rab8 (BRET)” value at AT1R (trans-Golgi network to plasma membrane, FIG. 5M) is “small increase at later time-points”; at AT1R-CXCR2 heteromer, “less of an effect”. On AT1R and CXCR2, the “Rmax, IP1 accumulation” value was 209 nM.
